Assay in all cases: DTP human tumour cell line panel, 48 h
The subject of test [1] is DU-145 prostate.
Test [2] concerns HCT-116 colon.
Test [3] deals with IGROV1 ovarian.
The test system of test [4] is MCF7 breast.
The subject of test [5] is MOLT-4 leukemia.
Test [6] concerns NCI-H522 lung.
For test [7], the system named is OVCAR-3 ovarian.
Test [8] deals with OVCAR-5 ovarian.
For test [9], the system named is SF-268 CNS.
For test [10], the system named is SK-MEL-2 melanoma.

Experimental findings from PubChem BioAssay (NCI) are described below.

Several values for one entry are separate records, joined by “and”; a condition that tells them apart may be missing. Identical values can stand only once.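 In this assay, cells in 96-well plates receive the compound at five concentrations for 48 hours. Endpoints are linearly interpolated between the surrounding concentrations. GI50 marks 50% less growth. TGI marks complete inhibition of growth.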

The TGI is the concentration at which net growth stops. The low end stands for greater sensitivity of the cells, the high end for lower sensitivity of the cells. In the case of `CC(=O)C(=Cc1ccc(C=C(C(C)=O)C(C)=O)cc1)C(C)=O`, the total growth inhibition concentration (TGI) in [1] is 11900 nM; in test [2] it was 1810 nM; in [3], 4180 nM; in test [4], 2360 nM; in [5], 3600 nM; in test [6] it was 1930 nM. The TGI was 5000 nM in test [7], 5880 nM in test [8], 3970 nM in test [9] and 5540 nM in [10].

By GI50 is commonly meant the concentration giving 50% growth inhibition. Regarding `COc1cc(NC(C)CCCN)c2ncccc2c1` (stereo not drawn), the TGI is above 100000 nM in test [1]; above 100000 nM in [2]; above 100000 nM in [3]; 31500 nM in test [4]; above 100000 nM in [5]; above 100000 nM in [6]. Moreover, the TGI in test [7] is 84200 nM and > 100000 nM; in test [8], above 100000 nM; in [9], above 100000 nM; in [10], above 89300 nM. The GI50 in [2] is 34600 nM and 75800 nM.

Regarding `CCC(C)[C@H]1O[C@]2(C=C[C@@H]1C)C[C@@H]1C[C@@H](C/C=C(\C)[C@@H](OC3C[C@H](OC)C(O[C@H]4C[C@H](OC)[C@@H](O)[C@H](C)O4)[C@H](C)O3)[C@@H](C)/C=C/C=C3\CO[C@@H]4[C@H](O)C(C)=C[C@@H](C(=O)O1)[C@]34O)O2` (stereo partly drawn), the GI50 is 907 nM in test [1]; 752 nM in [2]; 1850 nM in test [4]; 890 nM in test [6]; 904 nM in test [7]; 2060 nM in [8]. The figures for the GI50 in test [9] and in test [10] were 1010 nM and 1240 nM, respectively. Besides, the TGI in [1] was found to be 1620 nM; in [2], 1530 nM; in [4] it was 5720 nM; in test [6], 1930 nM; in [7] it was 1660 nM; in [8] it was 7860 nM. Moreover, the values for the total growth inhibition concentration (TGI) in test [9] and in [10] were 2140 nM and 2600 nM, respectively.

`O=C1C(N2CC2)=C(N2CC2)C(=O)C(N2CC2)=C1N1CC1`: the TGI was 487 nM in test [1]; 2380 nM in test [3]; 1500 nM in [4]; above 100000 nM in test [5]; 2210 nM in test [6]; 3460 nM in test [7]. Moreover, the TGI in test [8] came out at 6920 nM; in test [9], 5310 nM. For the same compound, the GI50 in [3] was 312 nM; in [4] it was below 21.8 nM; in test [5], 765 nM; in test [6], 432 nM; in test [7], 1040 nM; in test [8] it was 2290 nM. Moreover, the GI50 in test [9] was 265 nM.

Turning to `CN1CCN(CCOc2ccc(-c3cnc4c(-c5ccc(C(F)(F)F)cc5)cnn4c3)cc2)CC1`, the GI50 was 1590 nM in test [1]; 1380 nM in test [2]; 1550 nM in test [3]; 1210 nM in [4]; 1550 nM in [6]; 1550 nM in test [7]. Also, the values for the GI50 in test [8], in [9] and in test [10] were 1590 nM, 1700 nM and 1820 nM, respectively. For the same compound, the TGI in [1] turned out to be 2930 nM; in [2], 2810 nM; in test [3], 3060 nM; in test [4], 2860 nM; in test [6] it was 3160 nM; in test [7] it was 2940 nM. The TGI in test [8] was determined as 2960 nM; in test [9] it was 3440 nM; in test [10], 3520 nM.

For the compound `N#CCCN(CCCN(CCCN(C(=O)Nc1ccccc1)c1ccccc1)C(=O)Nc1ccccc1)C(=O)Nc1ccccc1`, the GI50 in test [1] was above 100000 nM; in test [2], above 100000 nM; in [3], 31700 nM; in [4] it was 11900 nM; in [5] it was 3950 nM; in test [7] it was above 100000 nM. The GI50 in [8] is above 100000 nM; in [9] it was 74800 nM; in [10], above 100000 nM. Besides, the TGI in test [1], in test [2], in test [3], in test [4], in [5] and in test [7] was above 100000 nM in each case. Also, the TGI in test [8], in test [9] and in [10] was above 100000 nM in each case.

Turning to `Cc1cc(C(=C2C=CC(=Nc3ccccc3)C=C2)c2ccc(Nc3ccccc3)cc2)ccc1N`, the GI50 in [1] is 507 nM; in test [2] it was 287 nM; in [3], 389 nM; in [4] it was 346 nM; in test [6], 203 nM; in test [7] it was 293 nM. Further, the GI50 in test [8] is 245 nM; in test [9], 651 nM; in [10], 216 nM. The TGI in test [1] is 1580 nM; in test [2], 1020 nM; in [3], 1340 nM; in [4], 1370 nM; in test [6], 602 nM; in [7], 876 nM. In addition, the results for the TGI in [8], in [9] and in test [10] were 671 nM, 1830 nM and 529 nM, respectively.

Consider `O=C(Cn1c(=O)c(-c2ccccc2)nc2ccccc21)Nc1ccc(F)cc1`, for which the GI50 was 43400 nM in [1]; 24000 nM in test [2]; 89600 nM in test [3]; 98700 nM in test [4]; 65100 nM in test [6]; above 100000 nM in test [7]. Further, the GI50 in test [8] is above 100000 nM; in test [9], above 100000 nM; in test [10], 60600 nM. Besides, the TGI in test [1], in test [2], in test [3], in [4], in [6] and in test [7] was above 100000 nM each time. For the same compound, the TGI in [8], in test [9] and in [10] was above 100000 nM throughout.

For the compound `OCC(O)C(Cl)CCl` (stereo not drawn), the TGI in test [1], in test [2], in [3], in test [4], in [5] and in test [6] was above 100000 nM each time. Moreover, the TGI in test [7], in test [8] and in test [9] was above 100000 nM in each case.
